Test results published in patent US12215140B2, “Method of stabilizing protein contained in specimen and solution for stabilizing protein contained in specimen” (EIKEN KAGAKU KABUSHIKI KAISHA, priority 2018, dated 2025).

Test system: hemoglobin-haptoglobin complex
Assay: Stability of hemoglobin (as hemoglobin-haptoglobin complex) in samples preserved at 37° C. in preservation solution containing 1 unit/L haptoglobin, Hb measured by latex agglutination method (Examples 1 to 7)
Design: species or system human
Summary of the method: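 Hemoglobin (~300 µg/L) in 0.5% fecal suspension, or without feces, held at 37 °C for 0–21 days in 40 mmol/L HEPES pH 6.8, 0.1% BSA, 0.1% NaN3, 1 unit/L haptoglobin, with 0–100 mmol/L phenylboronic acid ± sugars. Hb quantified by latex agglutination with anti-human Hb rabbit polyclonal; recovery (%) relative to day 0.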

[1] = Feces 3, phenylboronic acid 0.5 mmol/L, 37° C., 7 days
[2] = Feces 3, phenylboronic acid 0.5 mmol/L, 37° C., 14 days
[3] = Feces 3, phenylboronic acid 0.5 mmol/L, 37° C., 21 days
[4] = Feces 3, phenylboronic acid 1 mmol/L, 37° C., 7 days
[5] = Feces 3, phenylboronic acid 1 mmol/L, 37° C., 14 days
[6] = Feces 3, phenylboronic acid 1 mmol/L, 37° C., 21 days
[7] = Feces 3, phenylboronic acid 15 mmol/L, 37° C., 0 days
[8] = Feces 3, phenylboronic acid 15 mmol/L, 37° C., 7 days
[9] = Feces 3, phenylboronic acid 15 mmol/L, 37° C., 14 days
[10] = Feces 3, phenylboronic acid 15 mmol/L, 37° C., 21 days
[11] = Feces 3, phenylboronic acid 50 mmol/L, 37° C., 0 days
[12] = Feces 3, phenylboronic acid 50 mmol/L, 37° C., 7 days
[13] = Feces 3, phenylboronic acid 50 mmol/L, 37° C., 14 days
[14] = Feces 3, phenylboronic acid 50 mmol/L, 37° C., 21 days
[15] = Feces 3, phenylboronic acid 100 mmol/L, 37° C., 0 days
[16] = Feces 3, phenylboronic acid 100 mmol/L, 37° C., 7 days
[17] = Feces 3, phenylboronic acid 100 mmol/L, 37° C., 14 days
[18] = Feces 3, phenylboronic acid 100 mmol/L, 37° C., 21 days
[19] = No feces, phenylboronic acid 0.5 mmol/L, 37° C., 7 days
[20] = No feces, phenylboronic acid 0.5 mmol/L, 37° C., 14 days
[21] = No feces, phenylboronic acid 0.5 mmol/L, 37° C., 21 days
[22] = No feces, phenylboronic acid 1 mmol/L, 37° C., 7 days
[23] = No feces, phenylboronic acid 1 mmol/L, 37° C., 14 days
[24] = No feces, phenylboronic acid 1 mmol/L, 37° C., 21 days
[25] = No feces, phenylboronic acid 15 mmol/L, 37° C., 0 days
[26] = No feces, phenylboronic acid 15 mmol/L, 37° C., 7 days
[27] = No feces, phenylboronic acid 15 mmol/L, 37° C., 14 days
[28] = No feces, phenylboronic acid 15 mmol/L, 37° C., 21 days
[29] = No feces, phenylboronic acid 50 mmol/L, 37° C., 0 days
[30] = No feces, phenylboronic acid 50 mmol/L, 37° C., 7 days
[31] = No feces, phenylboronic acid 50 mmol/L, 37° C., 14 days
[32] = No feces, phenylboronic acid 50 mmol/L, 37° C., 21 days
[33] = No feces, phenylboronic acid 100 mmol/L, 37° C., 0 days
[34] = No feces, phenylboronic acid 100 mmol/L, 37° C., 7 days
[35] = No feces, phenylboronic acid 100 mmol/L, 37° C., 14 days
[36] = No feces, phenylboronic acid 100 mmol/L, 37° C., 21 days

What does the source list for `OB(O)c1ccccc1` [phenylboronic acid]?
Recovery ratio with respect to Hb concentration after 0 days (Feces 3, phenylboronic acid 0.5 mmol/L, 37° C., 0 days): 100%; Hb concentration [1]: 133 µg/L; Recovery ratio with respect to Hb concentration after 0 days [1]: 47%; Hb concentration [2]: 104 µg/L; Recovery ratio with respect to Hb concentration after 0 days [2]: 37%; Hb concentration [3]: 93 µg/L; Recovery ratio with respect to Hb concentration after 0 days [3]: 33%; Recovery ratio with respect to Hb concentration after 0 days (Feces 3, phenylboronic acid 1 mmol/L, 37° C., 0 days): 100%; Hb concentration [4]: 159 µg/L; Recovery ratio with respect to Hb concentration after 0 days [4]: 57%; Hb concentration [5]: 131 µg/L; Recovery ratio with respect to Hb concentration after 0 days [5]: 47%; Hb concentration [6]: 115 µg/L; Recovery ratio with respect to Hb concentration after 0 days [6]: 41%; Hb concentration (Feces 3, phenylboronic acid 15 mmol/L, no sugar, 0 days at 37° C.): 288 µg/L; Hb concentration (Feces 3, phenylboronic acid 15 mmol/L, no sugar, 7 days at 37° C.): 224 µg/L; Hb concentration (Feces 3, phenylboronic acid 15 mmol/L, no sugar, 14 days at 37° C.): 200 µg/L; Hb concentration (Feces 3, phenylboronic acid 15 mmol/L, no sugar, 21 days at 37° C.): 185 µg/L; Hb concentration [7]: 288 µg/L; Recovery ratio with respect to Hb concentration after 0 days [7]: 100%; Hb concentration [8]: 224 µg/L; Recovery ratio with respect to Hb concentration after 0 days [8]: 78%; Hb concentration [9]: 200 µg/L; Recovery ratio with respect to Hb concentration after 0 days [9]: 69%; Hb concentration [10]: 185 µg/L; Recovery ratio with respect to Hb concentration after 0 days [10]: 64%; Hb concentration [11]: 274 µg/L; Recovery ratio with respect to Hb concentration after 0 days [11]: 100%; Hb concentration [12]: 204 µg/L; Recovery ratio with respect to Hb concentration after 0 days [12]: 74%; Hb concentration [13]: 176 µg/L; Recovery ratio with respect to Hb concentration after 0 days [13]: 64%; Hb concentration [14]: 158 µg/L; Recovery ratio with respect to Hb concentration after 0 days [14]: 58%; Hb concentration [15]: 247 µg/L; Recovery ratio with respect to Hb concentration after 0 days [15]: 100%; Hb concentration [16]: 156 µg/L; Recovery ratio with respect to Hb concentration after 0 days [16]: 63%; Hb concentration [17]: 88 µg/L; Recovery ratio with respect to Hb concentration after 0 days [17]: 36%; Hb concentration [18]: 53 µg/L; Recovery ratio with respect to Hb concentration after 0 days [18]: 21%; Recovery ratio with respect to Hb concentration after 0 days (No feces, phenylboronic acid 0.5 mmol/L, 37° C., 0 days): 100%; Hb concentration [19]: 248 µg/L; Recovery ratio with respect to Hb concentration after 0 days [19]: 96%; Hb concentration [20]: 243 µg/L; Recovery ratio with respect to Hb concentration after 0 days [20]: 95%; Hb concentration [21]: 246 µg/L; Recovery ratio with respect to Hb concentration after 0 days [21]: 96%; Recovery ratio with respect to Hb concentration after 0 days (No feces, phenylboronic acid 1 mmol/L, 37° C., 0 days): 100%; Hb concentration [22]: 244 µg/L; Recovery ratio with respect to Hb concentration after 0 days [22]: 92%; Hb concentration [23]: 241 µg/L; Recovery ratio with respect to Hb concentration after 0 days [23]: 91%; Hb concentration [24]: 244 µg/L; Recovery ratio with respect to Hb concentration after 0 days [24]: 92%; Hb concentration (No feces, phenylboronic acid 15 mmol/L, no sugar, 0 days at 37° C.): 286 µg/L; Hb concentration (No feces, phenylboronic acid 15 mmol/L, no sugar, 7 days at 37° C.): 262 µg/L; Hb concentration (No feces, phenylboronic acid 15 mmol/L, no sugar, 14 days at 37° C.): 253 µg/L; Hb concentration [25]: 286 µg/L; Recovery ratio with respect to Hb concentration after 0 days [25]: 100%; Hb concentration [26]: 262 µg/L; Recovery ratio with respect to Hb concentration after 0 days [26]: 92%; Hb concentration [27]: 253 µg/L; Recovery ratio with respect to Hb concentration after 0 days [27]: 88%; Hb concentration [28]: 264 µg/L; Recovery ratio with respect to Hb concentration after 0 days [28]: 92%; Hb concentration [29]: 260 µg/L; Recovery ratio with respect to Hb concentration after 0 days [29]: 100%; Hb concentration [30]: 242 µg/L; Recovery ratio with respect to Hb concentration after 0 days [30]: 93%; Hb concentration [31]: 228 µg/L; Recovery ratio with respect to Hb concentration after 0 days [31]: 88%; Hb concentration [32]: 235 µg/L; Recovery ratio with respect to Hb concentration after 0 days [32]: 90%; Hb concentration [33]: 239 µg/L; Recovery ratio with respect to Hb concentration after 0 days [33]: 100%; Hb concentration [34]: 198 µg/L; Recovery ratio with respect to Hb concentration after 0 days [34]: 83%; Hb concentration [35]: 183 µg/L; Recovery ratio with respect to Hb concentration after 0 days [35]: 77%; Hb concentration [36]: 178 µg/L; Recovery ratio with respect to Hb concentration after 0 days [36]: 74%; apparent recovery ratio (addition of 50 mmol/L or more phenylboronic acid): decreased; decrease in the apparent recovery ratios (phenylboronic acid 50 mmol/L in preservation solutions to which a sugar (100 mmol/L) was added): not observed; phenylboronic acid concentration at which the recovery ratio of hemoglobin reached the maximum (samples containing feces, 37° C.): 15 mmol/L; improvement of recovery ratio by addition of phenylboronic acid (samples containing no fecal specimens): not observed
